Consider 8 molecules from patent US20040023386A1, “Modulation of nitric oxide synthase by PKC” (Joslin Diabetes Center, Inc., a Massachusetts corporation, priority 2000, published 2004).

Data set [1] concerns IRS-2-associated PI-3 kinase. The experiment in a line: Assay of IRS-2-associated PI-3 kinase activity in BAECs. The format is cell-based, bovine. Here is the method: After preincubation with or without 100 nmol/L PMA for 30 minutes, BAECs were stimulated with insulin (100 nmol/L) for 5 minutes. Cells were processed as described previously for this assay. Aliquots of proteins from the supernatant were immunoprecipitated with 10 μL/ml anti-alpha-insulin receptor substrates (IRS)-2 antibodies (kindly provided by Dr Morris F. White, Joslin Diabetes Center, Boston, Mass) for 2 hours and bound to protein A-Sepharose beads at 4° C. as described previously. The lipids were quantified with a PhosphorImager.

Data set [2] relates to eNOS mRNA. Description: eNOS mRNA level in BAECs (Northern blot). The format is cell-based, bovine. Here is the method:
(§1) Bovine aortic endothelial cells (BAECs) from passages 4 to 10 were isolated. Confluent cells were placed in DMEM containing 1% platelet-deprived horse serum (PDHS) for 24 hours before being studied and pretreated with the following inhibitors: phosphatidylinositol-3 (PI-3) kinase-selective inhibitors wortmannin (Sigma Chemical Co) and LY294002 (BIOMOL Research Laboratories), protein kinase C (PKC) activator phorbol-12-myristate-13-acetate (PMA) (Sigma Chemical Co), general PKC inhibitor GF109203X (GFX) (Calbiochem-Novabiochem Corp), and PKCβ isoform-selective inhibitor LY333531 (Lilly Inc). Cells were then stimulated with insulin (Sigma Chemical Co), recombinant insulin-like growth factor-1 (IGF-1) (Upstate Biotechnology), and LPC (Avanti Polar Lipid) or alpha-IR3 antibodies.
(§2) Total RNA from cultured BAECs, PKCβ1-overexpressed BAECs, and vascular stroma from the epididymal fat pads of Zucker rats were isolated according to the guanidinium thiocyanate-phenol-chloroform method with TRI Reagent (Molecular Research Center) and solution D containing 4 mol/L guanidinium thiocyanate, 25 mmol/L sodium citrate, pH 7.0, 0.5% sarcosyl, and 0.1 mol/L 2-mercaptoethanol. Total RNA (20 μg) was fractionated and hybridized to 650-bp cDNA fragments of rat eNOS (kindly provided by Dr Mark A. Perella and Arthur M. E. Lee, Harvard School of Public Health, Boston, Mass.), which were labeled with the use of a DNA labeling system (Multiprime; Amersham Corp). The quantification of eNOS mRNA levels was performed with a PhosphorImager (Molecular Dynamics) and normalized to 36B4 mRNA.

Data set [3] concerns eNOS mRNA. Description: eNOS mRNA level in adenovirus-infected BAECs (PKCβ1 or β-Gal). The note with it: for increase of eNOS mRNA levels: LPC 100 μmol/L. The format is cell-based, bovine. Here is the method:
The construction of a replication-deficient recombinant adenovirus for PKCβ1 expression was performed as described in Becker et al. Methods Cell Biol. 1994;43:161-189. Adenovirus-mediated gene transfer to confluent BAECs was performed through a 1-hour adenoviral infection of 10^9 pfu/mL at 37° C. in DMEM containing 10% PDHS. The infected BAECs were then incubated in DMEM containing 1% PDHS for 24 hours, incubated with or without insulin (100 nmol/L) for an additional 6 hours, and harvested. AdV-CMV-PKCβ1- or β-galactosidase (β-Gal)-infected BAECs were assessed for PKC activity and protein expression as previously described.
as §2

The next data set relates to NOS activity. The experiment in a line: Assay of NOS activity in BAECs. The format is cell-based, bovine. The note with it: insulin 100 nmol/L. Here is the method: The amount of NOS activity produced by BAECs was measured by using an NOS Detect assay kit (Transduction Laboratories) according to the manufacturer's instructions. Briefly, BAECs were harvested in PBS containing 1 mmol/L EDTA and centrifuged at 12 000 g. The pellets were lysed in homogenization buffer containing 25 mmol/L Tris, pH 7.4, 1 mmol/L EDTA, and 1 mmol/L EGTA and centrifuged at 12 000 g. Aliquots from the supernatant were used for the measurement of NOS activity through the conversion of [^3H]L-arginine to [^3H]L-citrulline. Data were normalized by the amount of protein and reaction time.

Data set [4] deals with eNOS mRNA. The experiment in a line: eNOS mRNA level in vascular stroma from epididymal fat pads of Zucker rats. The format is cell-based. The note with it: insulin 100 nmol/L, 6 hours. Here is the method:
Vascular stromas were obtained from the epididymal fat pads of 12-week-old Zucker lean and fatty rats (Harlan Sprague Dawley, Inc). Epididymal fat pads were isolated, minced, and incubated with 0.2% collagenase I for 30 minutes at 37° C. Then, they were fractionated with the use of a Dounce homogenizer and centrifuged at 3000 g for 20 minutes to isolate vessels from adipocytes. Vascular stroma were washed with DMEM containing 0.2% BSA and incubated with DMEM containing 0.2% BSA with or without insulin for 6 hours at 37° C. T he purity of the isolated vascular stroma was quantified through immunohistochemical staining with anti-factor VIII antibody and through immunoblotting of the stroma with antibodies to smooth muscle cell alpha-actin. Only preparations that were stained positively in more than 90% of the vessels were used.
Total RNA from cultured BAECs, PKCβ1-overexpressed BAECs, and vascular stroma from the epididymal fat pads of Zucker rats were isolated according to the guanidinium thiocyanate-phenol-chloroform method with TRI Reagent (Molecular Research Center) and solution D containing 4 mol/L guanidinium thiocyanate, 25 mmol/L sodium citrate, pH 7.0, 0.5% sarcosyl, and 0.1 mol/L 2-mercaptoethanol. […] The quantification of eNOS mRNA levels was performed with a PhosphorImager (Molecular Dynamics) and normalized to 36B4 mRNA.

The subject of a further data set is eNOS protein. The experiment in a line: Immunoblot analysis of eNOS protein in BAECs. The format is cell-based, bovine. Here is the method:
as §1
Cells were washed 3 times with ice-cold PBS, pH 7.4, lysed in 50 mmol/L Tris, pH 7.5, 2 mmol/L EDTA, 0.5 mmol/L EGTA, 2 mmol/L PMSF, 25 μg/mL leupeptin, 0.1 mg/mL aprotinin, 1 mmol/L dithiothreitol, 50 mmol/L NaF, and 1% Triton X-100 (Sigma Chemical Co); scraped from the dish; rotated for 1 hour at 4° C.; and centrifuged for 15 minutes at 14 000 g. Protein concentrations of the supernatant were measured according to the method of Bradford and separated with the use of 6% SDS-PAGE. The membrane was incubated for 1 hour with polyclonal anti-human eNOS antibody (Transduction Laboratories) diluted in PBS containing 0.1% Tween-20 and 1% BSA, washed 3 times for 10 minutes with PBS containing 0.1% Tween-20, and incubated with 0.1 μCi/ML ^125I-protein A (Amersham Life Science, Inc). Protein levels of eNOS were quantified with a PhosphorImager.
In general terms: Immunoblotting shows a protein as a band on a membrane.

The test system of data set [5] is eNOS mRNA. Description: eNOS mRNA level in human umbilical endothelial cells. The format is cell-based. The note with it: IGF-1 25 nmol/L.

Regarding `CCCCCCCCCCCCCC(=O)O[C@@H]1[C@@H](C)[C@@]2(O)[C@@H](C=C(CO)C[C@]3(O)C(=O)C(C)=C[C@@H]23)[C@@H]2C(C)(C)[C@]12OC(C)=O` [PMA, phorbol-12-myristate-13-acetate, reference compound], the “effect on insulin-induced IRS-2-associated PI-3 kinase activity” value in data set [1] (PMA 100 nmol/L preincubation 30 minutes) is recorded as “mostly inhibited”. For the same molecule, the “basal PI-3 kinase activity” value in data set [1] (PMA treatment) was “not changed”. The “increase of eNOS mRNA expression” value in the data set on eNOS mRNA [2] (PMA 100 nmol/L, 12 hours) is 66±11%; in the data set with eNOS mRNA [2] (PMA 100 nmol/L, 24 hours), 105±14%. Moreover, the “change of eNOS mRNA level” value with eNOS mRNA [2] (PMA 100 nmol/L, initial 6 hours) is “did not change”. In addition, the “remaining effect of insulin on eNOS mRNA levels after PMA preincubation” value with eNOS mRNA [2] (preincubated with PMA for 30 minutes, then insulin) turned out to be 14±13%.
For the molecule “insulin: insulin (Sigma Chemical Co), used to stimulate endothelial cells”, the “enhancement of eNOS mRNA expression” value in the data set with eNOS mRNA [3] (insulin 100 nmol/L, BAECs with or without adenovirus containing only β-Gal) was at most 2 fold. The “change of eNOS mRNA levels” value with eNOS mRNA [3] (insulin, cells infected with adenovirus containing the PKCβ1 isoform) is given as “did not increase”. The NOS activity in the data set on NOS activity (after 24 hours) was 176±7 pmol/mg protein min. Besides, the “increase of IRS-2-associated PI-3 kinase activity” value in data set [1] (insulin 100 nmol/L, 5 minutes) was 5.4±0.4 fold. The “increase of eNOS mRNA levels” value with eNOS mRNA [4] (vascular stroma from Zucker lean rats) turned out to be 50±16%. Moreover, in the data set on eNOS mRNA [4] (vascular stroma from insulin-resistant (Zucker fatty) rats), the “effect on eNOS mRNA levels” value is “ineffective”. For the same molecule, in the data set on eNOS protein (insulin 100 nmol/L, Example 2), the “increase of eNOS protein level” value is 74±9%. Further, the “increase of eNOS protein levels” value with eNOS protein (insulin, 6 hours) came out at 43±16%. The “maximum increase of eNOS protein levels” value with eNOS protein (insulin, 24 hours, maintained for 36 hours) is 2 fold. Besides, the “concentration at which maximal effect on eNOS mRNA level was attained” value with eNOS mRNA [2] is on record as below 100 nmol/L. In addition, in the data set on eNOS mRNA [2] (insulin 0.1 nmol/L), the “response of eNOS mRNA expression” value is given as “significant increase”. The “increase of eNOS mRNA level” value in the data set with eNOS mRNA [2] (insulin 10 nmol/L) was 50±12%. In addition, the “maximum effect on eNOS mRNA level (dose response)” value with eNOS mRNA [2] (insulin 100 nmol/L) amounted to 2 fold. In addition, the “increase of eNOS mRNA expression” value with eNOS mRNA [2] (insulin 100 nmol/L, 1 hour) stood at 33±9%; with eNOS mRNA [2] (insulin 100 nmol/L, 6 hours), 71±21%. For the same molecule, the “maximum increase of eNOS mRNA expression” value in the data set with eNOS mRNA [2] (insulin 100 nmol/L, 12 hours, maintained for 24 hours) was found to be 2 fold. Further, the “increase of eNOS mRNA level compared with control” value in the data set on eNOS mRNA [2] (insulin 100 nmol/L, Example 2) is given as 58±20%.
For the molecule `CN(C)CCCn1cc(C2=C(c3c[nH]c4ccccc34)C(=O)NC2=O)c2ccccc21` [GFX, reference compound], the “increase of eNOS mRNA expression” value with eNOS mRNA [2] (GFX 5 μmol/L without insulin, 6 hours) was determined as 38±10%. In addition, in the data set with eNOS mRNA [2] (both insulin and GFX), the “increase of eNOS mRNA expression compared with control cells” value was 76±20%.
Turning to `O=c1cc(N2CCOCC2)oc2c(-c3ccccc3)cccc12` [LY294002, reference compound], the “decrease of basal eNOS protein level” value with eNOS protein (LY294002 50 nmol/L) came to 72±5%. The “decrease of basal eNOS mRNA expression” value with eNOS mRNA [2] (LY294002 50 nmol/L, without insulin treatment) stood at 30±4%.
Turning to `CN(C)C[C@@H]1CCn2cc(c3ccccc32)C2=C(C(=O)NC2=O)c2cn(c3ccccc23)CCO1` [LY333531, reference compound], the “increase of eNOS mRNA expression” value with eNOS mRNA [2] (LY333531 20 nmol/L) turned out to be 60±14%.
As to “IGF-1: recombinant insulin-like growth factor-1 (Upstate Biotechnology)”, in the data set with eNOS mRNA [5], the “increase of eNOS mRNA level” value was 47±10%.
Regarding `COC[C@H]1OC(=O)c2coc3c2[C@@]1(C)C1=C(C3=O)[C@@H]2CCC(=O)[C@@]2(C)C[C@H]1OC(C)=O` [wortmannin, reference compound], the “insulin-induced NOS activity after preincubation with inhibitor” value with NOS activity (wortmannin 100 nmol/L preincubation for 15 minutes) came out at 123±13 pmol/mg protein min.
Consider lysophosphatidylcholine [LPC], for which the figures for the “increase of eNOS mRNA levels” value in the data set on eNOS mRNA [3] (adenovirus-containing β-Gal cells) and in the data set with eNOS mRNA [3] (control cells) were 4.5 fold and 5 fold, respectively. The “increase of eNOS mRNA” value in the data set on eNOS mRNA [3] (LPC, BAECs infected with the adenoviral-PKCβ1 isoform) was determined as 4 fold.
